Data taken from patent US10555919B2, “Melatonin in autoimmune disease” (The Brigham and Women's Hopsital, Inc., priority 2014, dated 2020).
“Also recorded” adds a separate entry of the source.

Experiments:
[1] = tested on: 2D2+ transgenic T cells; assay: In vitro activation of naive 2D2+ transgenic T cells / CD4+ T cells (MOG35-55 and DCs or anti-CD3 and anti-CD28); type: cell-based, mice
[2] = tested on: murine Th17 cell differentiation; assay: In vitro mouse Th17 cell differentiation; type: cell-based; details: melatonin 2 ng/ml
Procedure: For intracellular cytokine staining, cells were stimulated for 4 h at 37° C. with phorbol 12-myristate 13-acetate (50 ng/ml; Sigma), ionomycin (1 μg/ml; Sigma) and monensin (GolgiStop; 1 μg/ml; BD Biosciences). After being stained for surface markers, cells were fixed and made permeable according to the manufacturer's instructions (BD Biosciences). All antibodies against cytokines were from Biolegend. All experiments were started at the same time (8-9 am). Data were collected with a LSR II or FACSAria (BD Biosciences), then were analyzed with FlowJo software (Treestar).
(§1) Naive CD4+ T cells (CD4+CD44loCD62LhiCD25−) were from the spleen and lymph node of C57BL/6 wild-type, MTNR1A−, NFIL3−, REV-ERBα, C/EBPα-deficient or RORα-deficient mice using magnetic beads (CD4+ T cell isolation kit, Miltenyi Biotec). All experiments were started between 7 and 9 am. Cells were activated with plate-bound anti-CD3 (2 μg/ml; 14-0031-86; eBioscience) and anti-CD28 (2 μg/ml; 16-0281-86; eBioscience). Mouse IL-27 (30 ng/ml; 34-8271; Biolegend) was added for the generation of Tr1 cells. IL-6 (30 ng/ml; 406-ML-025; R&D Systems), TGF-β1 (15 ng/ml; 130-095-067; Miltenyi Biotec), anti-IL-4 (2.5 μg/ml; C17.8; Biolegend) and anti-IFN-γ (5 μg/ml; XMG1.2; Biolegend) were added for the generation of Th17 cells. Recombinant mouse IL-23 (30 ng/ml; 1887-ML-010; R&D Systems) was added at day 2. For some experiments IL-6 and […] (10 ng/ml; 401-ML-025; R&D Systems) or TGF-β1 and IL-21 (100 ng/ml; 594-ML-010; R&D Systems) were used in instead for Th17 cell differentiation. IL-12 (30 ng/ml; 419-ML-010; R&D Systems) and anti-IL-4 (2.5 μg/ml; C17.8; Biolegend) were used for the generation of Th1 cells. IL-4 (30 ng/ml; 404-ML-010; R&D Systems) and anti-IFN-γ (5 μg/ml; XMG1.2; Biolegend) was added for the generation of Th2 cells. TGF-β1 (15 ng/ml; 130-095-067; Miltenyi Biotec) was used for the generation of Foxp3+ Tregs. Melatonin (Gador, Argentina), Agomelatin, and CGP-52608 (Sigma-Aldrich) were added at the start of the cultures and at day 2, at a final concentration of 2-20 ng/ml.
Secreted cytokines were measured in tissue culture supernatants after 72-96 hs by enzyme-linked immunosorbent assay as previously described (Farez et al., 2009).

[3] = tested on: CD4+ T cells; assay: Th17 differentiation in vivo in RAG-1 deficient mice reconstituted with CD4+ T cells and immunized with MOG35-55 in CFA; details: melatonin 5 mg/kg
Excerpt: Sorted splenic CD4+ T cells from C57BL/6, MTNR1A-, REV-ERBα and NFIL3-deficient mice were transferred i.p. (10×10^6 cells per mouse) into RAG-1 deficient mice. Ten days after transfer, mice were checked for reconstitution of CD4+ T cells and immunized with MOG35-55 in CFA. Twenty days after immunization, T cells were isolated and stained for cytokines.

[4] = tested on: nr1d1 reporter-transfected HEK293 cells; assay: nr1d1 promoter luciferase reporter assay; type: cell-based; details: nr1d1 promoter controls luciferase expression
Excerpt: The IL-10 promoter reporter and C-Maf and AhR vectors were previously described (Apetoh et al., 2010), vector expressing ROR-α were purchased from PlasmID at Harvard Medical School. Vectors coding for C/EBPα (44627) and Bmal reporter (46824) were purchased from Addgene. The retrovirus used for nfil3 overexpression in T cells was graciously provided by Laura Hooper (UT Southwestern, TX, USA). The retrovirus used for nr1d1 overexpression in T cells was graciously provided by Bart Staels (Institut Pasteur, Lille, France, […]). The nr1d1 promoter reporter was graciously provide by Vincent Laudent (Ecole Normale Supérieure, Lyon, France).
HEK293 cells were grown in DMEM supplemented with 10% FBS and were transfected with FuGENE HD transfection reagent and 2 μg of each plasmids according the manufacturer's instructions (Roche). Firefly and renilla luciferase activity was analyzed 48 h after transfection and 24 h after treatment with a Dual Luciferase Assay kit (Promega).

[5] = tested on: FoxP3+ iTregs, Th1 or Th2 cells; assay: In vitro mouse differentiation of FoxP3+ iTregs, Th1 or Th2 cells; type: cell-based; details: melatonin 2 ng/ml, 3 days
Procedure: as §1, with “Miltenyi Biotec), anti-IL-4 (2.5 μg/ml;” left out, “R&D Systems) and anti-IL-4 (2.5 μg/ml;” left out, “Tregs.” for “Tregs. Melatonin (Gador, Argentina), Agomelatin, and CGP-52608 (Sigma-Aldrich) were added at the start of the cultures and at day 2, at a final concentration of 2-20 ng/ml.”

[6] = tested on: Erk1/2; assay: Signal transduction profiling using reverse protein arrays; type: cell-based, mouse; details: T cells; MTNR1A-dependent
Procedure: Cells activated under polarizing conditions were treated with vehicle (DMSO 0.001%), melatonin (2-10 ng/mL), agomelatine (2-10 ng/mL) and CGP-52608 (2-10 ng/mL) during 72-96 hs and lysed. Lysates were transferred to 384-well polypropylene plates and were spotted onto Super Epoxi slides (Telechem) with a robotic microarrayer (Genetix) fitted with solid spotting pins.

[7] = during Th17 cell differentiation, 3 days

For `COc1ccc2[nH]cc(CCNC(C)=O)c2c1` [Melatonin, N-Acetyl-5-methoxytryptamine], the “ability of melatonin-pretreated DCs to activate 2D2+ T cells” value ([1]; in the presence of MOG35-55) was “did not affect”, the “apoptosis in CD4+ T cells (annexin V and propidium iodide staining, Bcl-xl levels)” value ([1]; stimulated with antibodies against CD3 and CD28, 3 days) was “did not increase” and the “in vitro activation of naive 2D2+ transgenic T cells” value ([1]; with MOG35-55 and DCs or with antibodies to CD3 and CD28 in the absence of DCs) was “suppressed”. For the same compound, the “differentiation of MTNR1A-deficient (MTNR1A KO) Th17 cells” value ([2]; MTNR1A KO) was “failed to suppress; also recorded: boosted”, the “expression of both ROR-α and ROR-γt” value ([2]; Th17 polarizing conditions) was “reduced” and the “expression of IL-10” value ([2]; Th17 polarizing conditions, 72 hs) was “increased”. The “expression of the ROR-γt repressor NFIL3” value [2, 7] was “increase”, the nr1d1 expression [2, 7] was “suppressed” and the “differentiation of Th17 cells (rorc, IL-17, IL-23 receptor)” value ([2]; wild type, agomelatine 20 ng/ml, ramelteon 10 ng/ml, CGP 52608 20 ng/ml) was “interfered”. The “Th17 cell differentiation in vivo” value ([3]; mice reconstituted with MTNR1A-, REV-ERBα or NFIL3-deficient T cells) was “increased”, the “Th17 cell differentiation in vivo” value ([3]; mice reconstituted with wild type CD4+ T cells) was “suppression” and the luciferase activity [4] was “decreased”. For the same compound, the “differentiation of FoxP3+ iTregs, Th1 or Th2 cells” value [5] was “no effects” and the “activation of Erk1/2” value [6] was “increase”.
